Consider seven compounds from US20240317777A1, “NOVEL MACROCYCLIC AMINOPYRAZOLE COMPOUNDS AS CDK2 INHIBITORS” (Accutar Biotechnology Inc., priority 2023, published 2024).

SMILES strings stand for the structures. Read-outs that look alike come from different tables or passages of the source.

In one assay the target is CDK2-CYCLIN E1 (Homo sapiens, UniProt P24941). Description: CDK protein kinase inhibition by ADP-Glo assay, CDK2-CYCLIN E1. Format: biochemical. Particulars: ADP-Glo, 1000 μM ATP, read-out: CDK2-CYCLINE, IC50. An outline of the steps: (§1)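 Compounds were incubated at 22° C with the CDK/cyclin complex, peptide substrate, 1000 μM ATP and 5 mM MgCl2. The reaction was then quenched and ADP formation quantified by luminescence using ADP-Glo reagents.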
In general terms: In ADP-Glo the light output rises with the ADP produced.

Assay [1] has as its system CCNE1-amplified OVCAR3 cells. The assay can be described thus: Cell growth inhibition of CCNE1-amplified OVCAR3 cells (CellTiter-Glo). Format: cell-based. Particulars: Homo sapiens, OVCAR-3, 144 h, 6 days. The method in brief: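 Growth read-out was CellTiter-Glo luminescence, taken after 10 min at room temperature at the end of a 6-day compound exposure at 37 °C. Compounds were diluted from DMSO stocks across various concentrations.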
(In ATP-based viability assays light output follows the ATP content of the culture.)

Another assay deals with CDK9-CYCLIN T1 (Homo sapiens, UniProt P50750). Description: CDK protein kinase inhibition by ADP-Glo assay, CDK9-CYCLIN T1. Format: biochemical. The conditions noted are these: for IC50: ADP-Glo, 1000 μM ATP, read-out: CDK9-CYCLINT1, IC50; for CDK2 Fold selectivity, CDK9: CDK2 versus CDK9. The method in brief: as §1
Chain of CDK9-CYCLIN T1 (P50750 whole entry): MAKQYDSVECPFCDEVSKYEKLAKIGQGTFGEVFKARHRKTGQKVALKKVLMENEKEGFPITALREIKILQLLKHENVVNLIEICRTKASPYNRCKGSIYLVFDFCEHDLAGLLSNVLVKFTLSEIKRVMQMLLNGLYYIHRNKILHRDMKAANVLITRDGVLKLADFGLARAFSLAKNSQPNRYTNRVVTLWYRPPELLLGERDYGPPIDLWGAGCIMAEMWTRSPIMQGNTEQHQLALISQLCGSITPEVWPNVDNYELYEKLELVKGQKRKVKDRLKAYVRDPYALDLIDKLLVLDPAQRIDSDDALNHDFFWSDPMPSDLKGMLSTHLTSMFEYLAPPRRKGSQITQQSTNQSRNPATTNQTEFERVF
Chain of CDK9-CYCLIN T1 (O60563 whole entry partner): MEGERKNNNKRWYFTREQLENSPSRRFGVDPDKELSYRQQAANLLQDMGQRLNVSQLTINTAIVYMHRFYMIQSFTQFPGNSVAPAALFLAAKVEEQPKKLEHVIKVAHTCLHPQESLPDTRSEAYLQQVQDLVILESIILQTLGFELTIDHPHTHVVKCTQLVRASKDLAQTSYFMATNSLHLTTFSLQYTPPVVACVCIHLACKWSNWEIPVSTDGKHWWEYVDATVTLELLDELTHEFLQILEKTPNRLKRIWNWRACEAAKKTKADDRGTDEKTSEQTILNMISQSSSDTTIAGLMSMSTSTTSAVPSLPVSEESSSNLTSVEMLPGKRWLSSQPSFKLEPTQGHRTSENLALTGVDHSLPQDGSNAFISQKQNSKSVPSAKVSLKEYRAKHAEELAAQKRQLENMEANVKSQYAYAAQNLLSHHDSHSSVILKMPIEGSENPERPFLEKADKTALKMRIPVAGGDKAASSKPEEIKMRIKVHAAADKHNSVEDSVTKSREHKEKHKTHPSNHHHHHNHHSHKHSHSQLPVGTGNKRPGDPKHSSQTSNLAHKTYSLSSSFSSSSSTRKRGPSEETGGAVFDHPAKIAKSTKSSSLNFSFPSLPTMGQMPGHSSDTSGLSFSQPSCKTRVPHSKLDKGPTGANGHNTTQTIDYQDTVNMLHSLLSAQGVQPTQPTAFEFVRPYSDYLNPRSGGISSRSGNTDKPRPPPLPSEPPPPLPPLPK
The target of a further assay is CDK1-CYCLIN B (Homo sapiens, UniProt P06493). The assay can be described thus: CDK protein kinase inhibition by ADP-Glo assay, CDK1-CYCLIN B. Format: biochemical. Particulars: for IC50: ADP-Glo, 1000 μM ATP, read-out: CDK1-CYCLINB, IC50; for CDK2 Fold selectivity, CDK1: CDK2 versus CDK1. An outline of the steps:
as §1

A further assay addresses CDK6-CYCLIN D3 (Homo sapiens, UniProt Q00534). The assay can be described thus: CDK protein kinase inhibition by ADP-Glo assay, CDK6-CYCLIN D3. The format is biochemical. Particulars: for IC50: ADP-Glo, 1000 μM ATP, read-out: CDK6-CYCLIND3, IC50; for CDK2 Fold selectivity, CDK6: CDK2 versus CDK6. An outline of the steps:
as §1

In assay [2] the test system is Phospho-Rb (Ser807/811) in OVCAR3 cells. Description: Phospho-Rb expression inhibition in OVCAR3 cells quantified by In Cell Western. The format is cell-based. Particulars: Homo sapiens, OVCAR-3, 24 hours, read-out: OVCAR-3 pRb IC50. An outline of the steps: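 In-cell western: after 24 h compound exposure at 37° C, fixed OVCAR3 cells co-stained for pRb Ser807/811 (800 nm channel) and total Rb (680 nm channel), imaged by LI-COR Odyssey.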

Another assay concerns CCNE1-normal SKOV3 cells. Description: Cell growth inhibition of CCNE1-normal SKOV3 cells (CellTiter-Glo). Format: cell-based. Particulars: Homo sapiens, SK-OV-3, 144 h, 6 days. An outline of the steps: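 Growth was measured by CellTiter-Glo luminescence after 6 days' compound exposure at 37 °C. Cells were plated one day before dosing at 1000 per well in medium with 10% FBS, and compounds were diluted from DMSO stocks.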

Another assay addresses CDK4-CYCLIN D1 (Homo sapiens, UniProt P11802). Description: CDK protein kinase inhibition by ADP-Glo assay, CDK4-CYCLIN D1. Particulars: for IC50: ADP-Glo, 1000 μM ATP, read-out: CDK4-CYCLIND1, IC50; for CDK2 Fold selectivity, CDK4: CDK2 versus CDK4. Format: biochemical. An outline of the steps: as §1

Chain of CDK4-CYCLIN D1 (P11802 whole entry): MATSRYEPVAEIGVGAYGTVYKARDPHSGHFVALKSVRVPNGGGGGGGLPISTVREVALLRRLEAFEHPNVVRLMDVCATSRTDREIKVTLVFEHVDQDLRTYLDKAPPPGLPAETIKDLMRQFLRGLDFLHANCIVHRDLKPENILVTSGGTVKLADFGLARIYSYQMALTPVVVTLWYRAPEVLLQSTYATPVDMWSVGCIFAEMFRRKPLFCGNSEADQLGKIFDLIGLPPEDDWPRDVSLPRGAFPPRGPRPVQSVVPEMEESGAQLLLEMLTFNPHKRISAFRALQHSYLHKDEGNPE
Chain of CDK4-CYCLIN D1 (P24385 whole entry partner): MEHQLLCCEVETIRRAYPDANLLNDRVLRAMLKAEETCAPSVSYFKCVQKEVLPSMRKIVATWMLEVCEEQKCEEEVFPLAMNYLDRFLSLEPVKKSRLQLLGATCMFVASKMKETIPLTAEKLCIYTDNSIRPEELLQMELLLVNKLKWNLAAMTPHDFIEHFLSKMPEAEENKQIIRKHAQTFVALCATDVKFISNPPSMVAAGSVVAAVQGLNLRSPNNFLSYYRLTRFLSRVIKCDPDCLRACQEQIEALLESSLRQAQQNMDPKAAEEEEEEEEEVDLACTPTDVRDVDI
Chain of CDK6-CYCLIN D3 (Q00534 whole entry): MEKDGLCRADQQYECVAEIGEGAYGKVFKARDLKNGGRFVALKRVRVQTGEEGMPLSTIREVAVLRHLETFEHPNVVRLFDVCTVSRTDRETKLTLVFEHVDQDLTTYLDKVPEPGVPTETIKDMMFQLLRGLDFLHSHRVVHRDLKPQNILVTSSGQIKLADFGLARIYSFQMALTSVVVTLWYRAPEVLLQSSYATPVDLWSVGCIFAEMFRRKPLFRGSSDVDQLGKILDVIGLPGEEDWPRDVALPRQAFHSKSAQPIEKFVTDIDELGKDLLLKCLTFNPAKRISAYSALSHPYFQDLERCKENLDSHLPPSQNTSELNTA
Chain of CDK6-CYCLIN D3 (P30281 whole entry partner): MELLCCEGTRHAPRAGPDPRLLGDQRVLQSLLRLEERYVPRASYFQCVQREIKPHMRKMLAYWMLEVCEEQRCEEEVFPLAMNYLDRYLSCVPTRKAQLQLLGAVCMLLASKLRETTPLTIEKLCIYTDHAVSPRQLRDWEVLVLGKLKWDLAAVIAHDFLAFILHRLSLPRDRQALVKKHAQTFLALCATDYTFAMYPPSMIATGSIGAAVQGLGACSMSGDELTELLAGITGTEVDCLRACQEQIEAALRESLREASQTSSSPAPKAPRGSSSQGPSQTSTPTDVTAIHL
Chain of CDK1-CYCLIN B (P06493 whole entry): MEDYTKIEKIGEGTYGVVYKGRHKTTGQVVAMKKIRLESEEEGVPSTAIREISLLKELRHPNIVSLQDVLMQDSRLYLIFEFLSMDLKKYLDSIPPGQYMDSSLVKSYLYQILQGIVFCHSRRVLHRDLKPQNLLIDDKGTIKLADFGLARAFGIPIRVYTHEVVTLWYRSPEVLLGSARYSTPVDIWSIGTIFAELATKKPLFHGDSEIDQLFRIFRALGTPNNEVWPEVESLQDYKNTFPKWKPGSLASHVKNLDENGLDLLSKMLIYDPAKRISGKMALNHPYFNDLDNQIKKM
Chain of CDK1-CYCLIN B (P14635 whole entry partner): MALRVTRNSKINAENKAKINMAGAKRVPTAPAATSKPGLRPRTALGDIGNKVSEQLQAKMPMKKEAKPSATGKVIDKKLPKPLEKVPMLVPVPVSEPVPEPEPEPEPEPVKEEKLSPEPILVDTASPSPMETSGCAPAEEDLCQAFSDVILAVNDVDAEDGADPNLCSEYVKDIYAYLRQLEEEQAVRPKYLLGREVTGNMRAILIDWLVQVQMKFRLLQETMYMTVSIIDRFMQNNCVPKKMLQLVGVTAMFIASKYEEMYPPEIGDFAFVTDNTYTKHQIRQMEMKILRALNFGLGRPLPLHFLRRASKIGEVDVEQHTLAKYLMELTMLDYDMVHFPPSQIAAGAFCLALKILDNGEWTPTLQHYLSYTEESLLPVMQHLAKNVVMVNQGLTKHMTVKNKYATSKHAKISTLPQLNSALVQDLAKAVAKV

By IC50 is commonly meant the concentration needed to halve the response being measured. `C[C@@H]1CCCOc2cncc(c2)Nc2cc(n[nH]2)[C@H]2CC[C@H](C2)OC(=O)N1` [Compound 120, (1^1S,1^3R,9R,Z)-9-methyl-2^1H-5,12-dioxa-3,10-diaza-4(3,5)-pyridina-2(3,5)-pyrazola-1(1,3)-cyclopentanacyclododecaphan-11-one]: the half-inhibitory concentration (IC50) was no more than 10 nM at CDK2-CYCLIN E1 (Table 13); 10 to 50 nM in assay [1]; 50 to 100 nM at CDK9-CYCLIN T1 (Table 13); 10 to 50 nM on CDK1-CYCLIN B (Table 13); 10 to 50 nM on CDK6-CYCLIN D3 (Table 13); 2 to 10 nM in assay [2]. The IC50 with CCNE1-normal SKOV3 cells was greater than 1250 nM; on CDK4-CYCLIN D1 (Table 13), 50 to 100 nM. Further, the “CDK2 Fold selectivity, CDK9” value on CDK9-CYCLIN T1 (Table 14) was “C (C, >50 and ≤100)”. Further, the “CDK2 Fold selectivity, CDK1” value at CDK1-CYCLIN B (Table 14) is “E (E, <20)”. The “CDK2 Fold selectivity, CDK6” value at CDK6-CYCLIN D3 (Table 14) is “E (E, <20)”. In addition, the “CDK2 Fold selectivity, CDK4” value at CDK4-CYCLIN D1 (Table 14) was “C (C, >50 and ≤100)”.

Turning to `C[C@@H]1CCCNC(=O)O[C@@H]2CC[C@@H](C2)c2cc([nH]n2)Nc2cncc(c2)O1` [Compound 121, (1^1S,1^3R,6R,Z)-6-methyl-2^1H-5,12-dioxa-3,10-diaza-4(3,5)-pyridina-2(3,5)-pyrazola-1(1,3)-cyclopentanacyclododecaphan-11-one], the IC50 on CDK2-CYCLIN E1 (Table 13) was no more than 10 nM; in assay [1], 50 to 250 nM; on CDK9-CYCLIN T1 (Table 13), 100 to 500 nM; on CDK1-CYCLIN B (Table 13), 100 to 500 nM; at CDK6-CYCLIN D3 (Table 13), 100 to 500 nM; in assay [2], 10 to 50 nM. In addition, the values for the IC50 in the assay with CCNE1-normal SKOV3 cells and on CDK4-CYCLIN D1 (Table 13) were greater than 1250 nM and greater than 500 nM, respectively. Also, the “CDK2 Fold selectivity, CDK9” value at CDK9-CYCLIN T1 (Table 14) is “B (B, >100 and ≤500)”. For the same compound, at CDK1-CYCLIN B (Table 14), the “CDK2 Fold selectivity, CDK1” value was “D (D, >20 and ≤50)”. Further, the “CDK2 Fold selectivity, CDK6” value on CDK6-CYCLIN D3 (Table 14) was “C (C, >50 and ≤100)”. The “CDK2 Fold selectivity, CDK4” value on CDK4-CYCLIN D1 (Table 14) was “B (B, >100 and ≤500)”.

On to `C[C@H]1CC/C=C/c2cc(ccn2)Nc2cc(n[nH]2)[C@H]2CC[C@H](C2)OC(=O)N1` [Compound 125, (1^1S,1^3R,2^4Z,5E,9S)-9-methyl-2^1H-12-oxa-3,10-diaza-4(4,2)-pyridina-2(3,5)-pyrazola-1(1,3)-cyclopentanacyclododecaphan-5-en-11-one], for which the half-inhibitory concentration (IC50) is no more than 10 nM on CDK2-CYCLIN E1 (Table 19); 10 to 50 nM in assay [1]; 100 to 500 nM on CDK9-CYCLIN T1 (Table 19); 100 to 500 nM on CDK1-CYCLIN B (Table 19); 100 to 500 nM on CDK6-CYCLIN D3 (Table 19); 2 to 10 nM in assay [2]. The values for the IC50 in the assay on CCNE1-normal SKOV3 cells and at CDK4-CYCLIN D1 (Table 19) were 250 to 1250 nM and 100 to 500 nM, respectively. Further, the “CDK2 Fold selectivity, CDK9” value at CDK9-CYCLIN T1 (Table 20) is “D (D, >20 and ≤50)”. For the same compound, the “CDK2 Fold selectivity, CDK1” value at CDK1-CYCLIN B (Table 20) is recorded as “E (E, <20)”. Moreover, the “CDK2 Fold selectivity, CDK6” value on CDK6-CYCLIN D3 (Table 20) is “D (D, >20 and ≤50)”. Further, on CDK4-CYCLIN D1 (Table 20), the “CDK2 Fold selectivity, CDK4” value is “E (E, <20)”.

With `C[C@@H]1CC/C=C/c2cc(ccn2)Nc2cc(n[nH]2)[C@H]2CC[C@H](C2)OC(=O)N1` [Compound 126, (1^1S,1^3R,2^4Z,5E,9R)-9-methyl-2^1H-12-oxa-3,10-diaza-4(4,2)-pyridina-2(3,5)-pyrazola-1(1,3)-cyclopentanacyclododecaphan-5-en-11-one], the IC50 on CDK2-CYCLIN E1 (Table 19) lay within 50 to 100 nM; in assay [1] it was 50 to 250 nM; at CDK9-CYCLIN T1 (Table 19), 100 to 500 nM; on CDK1-CYCLIN B (Table 19), 100 to 500 nM; on CDK6-CYCLIN D3 (Table 19) it was 100 to 500 nM; in assay [2] it was 10 to 50 nM. Further, the half-inhibitory concentration (IC50) with CCNE1-normal SKOV3 cells was in the range of 250 to 1250 nM; at CDK4-CYCLIN D1 (Table 19) it was 100 to 500 nM. Moreover, the “CDK2 Fold selectivity, CDK9” value at CDK9-CYCLIN T1 (Table 20) is “E (E, <20)”. The “CDK2 Fold selectivity, CDK1” value at CDK1-CYCLIN B (Table 20) is “E (E, <20)”. The “CDK2 Fold selectivity, CDK6” value at CDK6-CYCLIN D3 (Table 20) was “E (E, <20)”. Also, the “CDK2 Fold selectivity, CDK4” value at CDK4-CYCLIN D1 (Table 20) is on record as “E (E, <20)”.

For `O=C1NC2CC3(C2)CC(C3)Oc2cc(ccn2)Nc2cc(n[nH]2)[C@H]2CC[C@H](C2)O1` [Compound 128, (6^1S,6^3R,Z)-5^1H-2,7-dioxa-4,9-diaza-3(2,4)-pyridina-5(5,3)-pyrazola-6(1,3)-cyclopentana-1,10(1,3)-dicyclobutanadecaphan-8-one], the IC50 on CDK2-CYCLIN E1 (Table 17) was no more than 10 nM; in assay [1], 2 to 10 nM; at CDK9-CYCLIN T1 (Table 17) it was 10 to 50 nM; on CDK1-CYCLIN B (Table 17), 10 to 50 nM; at CDK6-CYCLIN D3 (Table 17), 10 to 50 nM; in assay [2], 2 to 10 nM. For the same compound, the values for the IC50 in the assay with CCNE1-normal SKOV3 cells and on CDK4-CYCLIN D1 (Table 17) were 250 to 1250 nM and 10 to 50 nM, respectively. Besides, at CDK9-CYCLIN T1 (Table 18), the “CDK2 Fold selectivity, CDK9” value is reported as “E (E, <20)”. In addition, on CDK1-CYCLIN B (Table 18), the “CDK2 Fold selectivity, CDK1” value is “E (E, <20)”. On CDK6-CYCLIN D3 (Table 18), the “CDK2 Fold selectivity, CDK6” value is reported as “E (E, <20)”. Also, the “CDK2 Fold selectivity, CDK4” value at CDK4-CYCLIN D1 (Table 18) is “D (D, >20 and ≤50)”.

Regarding `C[C@@H]1CCC#Cc2cc(ccn2)Nc2cc(n[nH]2)[C@H]2CC[C@H](C2)OC(=O)N1` [Compound 137, (1^1S,1^3R,2^4Z,9R)-9-methyl-2^1H-12-oxa-3,10-diaza-4(4,2)-pyridina-2(3,5)-pyrazola-1(1,3)-cyclopentanacyclododecaphan-5-yn-11-one], the 50% inhibitory concentration (IC50) on CDK2-CYCLIN E1 (Table 19) was 10 to 50 nM; in assay [1], 50 to 250 nM; on CDK9-CYCLIN T1 (Table 19), greater than 500 nM; at CDK1-CYCLIN B (Table 19), 100 to 500 nM; at CDK6-CYCLIN D3 (Table 19) it was greater than 500 nM; in assay [2] it was 10 to 50 nM. The IC50 with CCNE1-normal SKOV3 cells is greater than 1250 nM; on CDK4-CYCLIN D1 (Table 19), greater than 500 nM. Besides, the “CDK2 Fold selectivity, CDK9” value at CDK9-CYCLIN T1 (Table 20) is “D (D, >20 and ≤50)”. Besides, the “CDK2 Fold selectivity, CDK1” value at CDK1-CYCLIN B (Table 20) is given as “E (E, <20)”. Further, at CDK6-CYCLIN D3 (Table 20), the “CDK2 Fold selectivity, CDK6” value is “D (D, >20 and ≤50)”. Also, the “CDK2 Fold selectivity, CDK4” value on CDK4-CYCLIN D1 (Table 20) was “E (E, <20)”.

In the case of `C[C@H]1Oc2cc(ccn2)Nc2cc(n[nH]2)[C@H]2CC[C@H](C2)OC(=O)N[C@H]2C[C@H]1C2` [Compound 144, (1^1S,1^3R,7^1R,7^3R,6R,Z)-6-methyl-2^1H-5,10-dioxa-3,8-diaza-4(4,2)-pyridina-2(3,5)-pyrazola-1(1,3)-cyclopentana-7(1,3)-cyclobutanacyclodecaphan-9-one], the IC50 on CDK2-CYCLIN E1 (Table 21) is no more than 10 nM; in assay [1] it was 2 to 10 nM; on CDK9-CYCLIN T1 (Table 21) it was 100 to 500 nM; at CDK1-CYCLIN B (Table 21), 100 to 500 nM; on CDK6-CYCLIN D3 (Table 21) it was 100 to 500 nM; in assay [2], 2 to 10 nM. Moreover, the results for the half-inhibitory concentration (IC50) in the assay with CCNE1-normal SKOV3 cells and on CDK4-CYCLIN D1 (Table 21) were 250 to 1250 nM and 100 to 500 nM, respectively. The “CDK2 Fold selectivity, CDK9” value at CDK9-CYCLIN T1 (Table 22) was “C (C, >50 and ≤100)”. Also, the “CDK2 Fold selectivity, CDK1” value at CDK1-CYCLIN B (Table 22) is recorded as “E (E, <20)”. The “CDK2 Fold selectivity, CDK6” value on CDK6-CYCLIN D3 (Table 22) is “D (D, >20 and ≤50)”. Further, the “CDK2 Fold selectivity, CDK4” value on CDK4-CYCLIN D1 (Table 22) is “D (D, >20 and ≤50)”.
